The source of these data is PMC10644720 (Frontiers in Pharmacology, 2023).

Structures are written as SMILES.

For data set [1], the system named is human washed platelets. Kind of data set: Platelet superoxide anion and H2O2 release (DHE, Amplex Red). In kind it is cell-based. As to conditions: convulxin 5 ng/mL; luteolin 25 μM. The procedure: A ROS probe via a fluorescent enzyme marker was added. O2 ^− and H2O2 were measured using 2 μM Amplex Red (Cat No. ST010; Beyotime Institute of Biotechnology, Shanghai, China) or 2 μM Dihydroethidium (DHE, Cat No. S0063; Beyotime Institute of Biotechnology, Shanghai, China). O2 ^− and H2O2 were analyzed using a Fluoroskan Ascent fluorometer (Thermo Fisher, Waltham, Massachusetts, United States).

Data set [2] relates to human washed platelets. Briefly: MDA, SOD and GPx activity in platelet lysate supernatant. The class given is cell-based. As to conditions: convulxin- and collagen-induced. On the procedure:
MDA, SOD, GPx, and NADPH oxidase activity were measured as previously described ([Krotz et al., 2002]; [Paul et al., 2019]; [Pan et al., 2021]). After incubation and activation, the reaction was stopped by adding 10 mM EGTA. The platelets were pelleted by centrifugation at 20,000 × g for 10 min at 4°C and resuspended in Tyrode’s buffer with 0.1% phosphatase and protease inhibitors (Cat No. 04906837001, Roche Applied Science, Penzberg, Germany; Cat No. P-8340, Sigma, St. Louis, MO, United States). The platelets were disrupted by passing them 10 times through a 29-gauge needle, followed by centrifugation at 2000 × g for 10 min at 4°C to separate the supernatant and precipitate. The detection of MDA, SOD, and GPx in the supernatant was performed according to the kit’s instructions for SOD (Cat No. BC0170, Solarbio Life Science, Beijing, China), MDA (Cat No. S0131S, Beyotime Institute of Biotechnology, Shanghai, China) and GPx (Cat No. S0056, Beyotime Institute of Biotechnology, Shanghai, China). In order to determine NADPH oxidase (NOX) activity, platelet lysate (12.5 μg) was incubated with 10 µM lucigenin and 0.5 mM NADPH at 37°C in the dark. The absorbance values were detected at 450 nm using a spectrophotometer Multiskan FC (ThermoFisher Scientific Inc., Waltham, MA, United States). Protein content was determined by the Bradford method.

The next data set concerns GPVI signaling. Briefly: Western blot of ITAM and MAPK signaling molecules. In kind it is cell-based, human. As to conditions: convulxin-induced. The procedure:
A lysis buffer (5x, PBS, PH7.4, comprising 2.5% sodium dodecyl sulfate [SDS], 5% deoxycholate, 5% vol/vol Triton X-100, phosphatase and proteinase inhibitors cocktails) was used to lyse the cells on ice for 30 min. The platelet lysate was centrifuged at 12,000 rpm for 10 min at 4°C. The supernatant was added to 5× protein loading buffer and boiled. The proteins were separated by 10% SDS-PAGE gels and transferred to membranes. The PVDF membranes were blocked in EveryBlot Blocking buffer (Cat No. 12010020; Bio-Rad, Hercules, CA, United States) for 10 min. […] The intensity of the target bands was assessed by ImageJ software.
In general terms: Immunoblotting shows a protein as a band on a membrane.

A short description of data set [3]: Coagulation function in mice. The class given is in vivo, C57BL/6 mice. As to conditions: 30 min after administration. The procedure:
Then, 30 min after administration, blood was removed from the eyes and anticoagulated with 3.8% sodium citrate. The plasma was obtained by centrifugation at 3,000 rpm for 10 min at room temperature, and coagulation-related indexes were measured using an STA Compact Max (Diagnostica Stago, Inc. Asnières-sur-Seine, France).

Details of data set [4]: method as in Aziz et al., 2018. As to conditions: intraperitoneal injection; ref Aziz et al., 2018; cited from earlier work.
For the next data set, the system named is thrombin. Set-up: method as in Choi et al. (2015). As to conditions: ref Choi et al. (2015); cited from earlier work.

One may read the LD50 as the dose at which mortality reaches 50%. For the compound `O=c1cc(-c2ccc(O)c(O)c2)oc2cc(O)cc(O)c12` [Luteolin], in the data set with human washed platelets [1], the “platelet hydrogen peroxide release” value was “inhibited” and the “platelet superoxide anion release” value is “inhibited”. In addition, in the data set on human washed platelets [2], the GPx activity entry is given as “promoted”, the MDA activity entry is on record as “inhibited” and the SOD activity result is recorded as “promoted”. For the same compound, the “phosphorylation of MAPK and ITAM” value in the data set on GPVI signaling (Erk 1/2, SAPK/JNK, p38 MAPK) was “significant inhibitory effect”. Further, the “phosphorylation of Src, Syk, PLCγ2, Akt and GSK-3β” value with GPVI signaling (non-aggregating conditions) is on record as “inhibited”. Further, in data set [3], the “activated partial thromboplastin time (APTT)” value is recorded as “no significant effects”, the “plasma concentration of fibrinogen” value was “no significant effects”, the “prothrombin time (PT)” value was “no significant effects” and the “thrombin time (TT)” value is “no significant effects”. In addition, the LD50 in data set [4] is recorded as 180 mg/kg. In addition, the thrombin activity entry in the data set on thrombin is “effectively inhibits”.
